# Measured values: US12690589B2, “Herbicidal compositions comprising pyroxasulfone” (BASF SE, priority 2024, dated 2026)
# Where “and” joins values, the source holds several entries; their conditions need not be identical. Identical values can stand only once.
# How the values were obtained:
# Assay in all cases: Post-emergence application in field trials, herbicidal activity (damage scale 0 to 100%)
# Type in all cases: in vivo
# [1] = system: Digitaria horizontalis (DIGHO); conditions: growth stage 25, height 5-10 cm, 21 DAT, Table 2.6
# [2] = system: Commelina benghalensis (COMBE); conditions: 21 DAT
# Glycine max (GLXMA) = system: Glycine max (GLXMA)
# Procedure, shortened: (§1)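 Field sites with natural or seeded weeds were sprayed post-emergence via flat fan nozzles in 200 l/ha water plus 0.25 v/v % MSO adjuvant, solo or mixed with pyroxasulfone and other partners. Damage was scored 0–100% versus untreated plants at indicated DAT. Colby expected values were used to judge synergy.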
# Senecio vulgaris (SENVU) = conditions: growth stage 61-62, height 25-30 cm
# Procedure, shortened: as §1
# [3] = system: Amaranthus palmeri (AMAPA); conditions: height 30 cm, 21 DAT, Table 1.1
# Method: (§2) In the examples below, using the method of S. R. Colby (1967) “Calculating synergistic and antagonistic responses of herbicide combinations”, Weeds 15, p. 22ff., the value E, which is expected if the activity of the individual active compounds is only additive, was calculated:
# (§3) [formula] • wherein • X=percent activity using active herbicide A at an application rate a; • Y=percent activity using active herbicide B (e.g. pyroxasulfone) at an application rate b; • E=expected activity (in %) by A+B at application rates a+b.
# (§4) If the value found experimentally is higher than the value E calculated according to Colby, a synergistic effect is present.
# (§5) On field test sites, natural weed infestation or seeded weeds were treated post-emergence of the weeds.
# (§6) In the field trials, the weeds were treated as indicated below.
# In the following experiments, the herbicidal activity for the individual herbicidal compositions (solo and mixture applications) was assessed at the indicated days after treatment (DAT). The assessments for the damage on undesired weeds caused by the composition was carried out using a scale from 0 to 100%, compared to the untreated control plants. Here, 0 means no damage and 100 means complete destruction of the plants. […]
# [4] = system: Echinochloa colonum (ECHCO); conditions: height 20-25 cm, 25 DAT, Table 3.2
# Method: as §2, §3, §4, §5, §6
# (§7) In the following experiments, the herbicidal activity for the individual herbicidal compositions (solo and mixture applications) was assessed at the indicated days after treatment (DAT). The assessments for the damage on undesired weeds caused by the composition was carried out using a scale from 0 to 100%, compared to the untreated control plants. Here, 0 means no damage and 100 means complete destruction of the plants.
# (§8) Herbicide A-1 (300 g/l) and pyroxasulfone (85% WG) were, together with addition of 0.25 l/ha Dash® MSO Max as adjuvant, formulated in water as distribution medium (water volume 200 l/ha) and sprayed with commercial flat fan nozzles.
# Sorghum vulgare (SORVU) = conditions: height 20-25 cm, 14 DAT, Table 3.1
# Method: as §2, §3, §4, §5, §6, §7, §8
# [5] = system: Amaranthus cruentus (AMACR); conditions: height 20-25 cm
# Method: as §2, §3, §4, §5, §6, §7, §8
# [6] = system: Amaranthus hybridus (AMACH); conditions: height 20-25 cm, 14 DAT, Table 3.1
# Method: as §2, §3, §4, §5, §6, §7, §8
# [7] = 7 DAT, stage 12-13, height 7-11 cm, g ai/ha A-1 12.5, B 70, C-4 12.5
# [8] = 42 DAT, stage 12-13, height 7-11 cm, g ai/ha A-1 18, B 70
# [9] = 42 DAT, stage 12-13, height 7-11 cm, g ai/ha A-1 18, B 90
smiles,measurement,setting,value
"CCOC(=O)COc1ccccc1Oc1nc(-n2c(=O)cc(C(F)(F)F)n(C)c2=O)c(F)cc1Cl [A-1, ethyl 2-[2-[[3-chloro-5-fluoro-6-[3-methyl-2,6-dioxo-4-(trifluoromethyl)pyrimidin-1-yl]-2-pyridyl]oxy]phenoxy]acetate]",% Herbicidal activity,[1]; A-1 50 g ai/ha,92%
same,% Herbicidal activity,"[2]; growth stage 11-14, height 2-10 cm, A-1 50 g ai/ha, Table 2.6",94%
same,% Herbicidal activity,"[2]; height 20-25 cm, A-1 25 g ai/ha, Table 2.2",42%
same,% Herbicidal activity,Glycine max (GLXMA); [7],90%
same,% Herbicidal activity,Glycine max (GLXMA); [8],95%
same,% Herbicidal activity,Glycine max (GLXMA); [9],95%
same,% Herbicidal activity,"Glycine max (GLXMA); GLXMA, growth stage 12-13, height 7-11 cm, A-1 12.5 g ai/ha, 7 DAT, Table 4.1",90%
same,% Herbicidal activity,"Glycine max (GLXMA); GLXMA, growth stage 12-13, height 7-11 cm, A-1 12.5 g ai/ha, 21 DAT, Table 4.3",95%
same,% Herbicidal activity,"Glycine max (GLXMA); GLXMA, growth stage 12-13, height 7-11 cm, A-1 18 g ai/ha, 7 DAT, Table 4.1",90%
same,% Herbicidal activity,"Glycine max (GLXMA); GLXMA, growth stage 12-13, height 7-11 cm, A-1 18 g ai/ha, 21 DAT, Table 4.3",92%
same,% Herbicidal activity,"Senecio vulgaris (SENVU); A-1 12.5 g ai/ha, 7 DAT, Table 4.2",90%
same,% Herbicidal activity,"Senecio vulgaris (SENVU); A-1 12.5 g ai/ha, 21 DAT, Table 4.4",40%
same,% Herbicidal activity,"Senecio vulgaris (SENVU); A-1 18 g ai/ha, 21 DAT, Table 4.4",40%
same,% Herbicidal activity,[3]; A-1 25 g ai/ha,85%
same,% Herbicidal activity,[4]; A-1 50 g ai/ha,55%
same,% Herbicidal activity,Sorghum vulgare (SORVU); A-1 50 g ai/ha,88%
same,% Herbicidal activity,"[5]; A-1 25 g ai/ha, 14 DAT, Table 3.1",88%
same,% Herbicidal activity,"[5]; A-1 25 g ai/ha, 25 DAT, Table 3.2",89%
same,% Herbicidal activity,"[5]; A-1 50 g ai/ha, 14 DAT, Table 3.1",91%
same,% Herbicidal activity,"[5]; A-1 50 g ai/ha, 25 DAT, Table 3.2",91%
same,% Herbicidal activity,[6]; A-1 50 g ai/ha,87%
"Cn1nc(C(F)(F)F)c(CS(=O)(=O)C2=NOC(C)(C)C2)c1OC(F)F [B, pyroxasulfone]",% Herbicidal activity,[1]; B 120 g ai/ha,5%
same,% Herbicidal activity,"[2]; growth stage 11-14, height 2-10 cm, B 120 g ai/ha, Table 2.6",10%
same,% Herbicidal activity,"[2]; height 20-25 cm, B 120 g ai/ha, Table 2.2",0%
same,% Herbicidal activity,Glycine max (GLXMA); [7],0%
same,% Herbicidal activity,Glycine max (GLXMA); [8],0%
same,% Herbicidal activity,Glycine max (GLXMA); [9],0%
same,% Herbicidal activity,"Glycine max (GLXMA); GLXMA, growth stage 12-13, height 7-11 cm, B 70 g ai/ha, 7 DAT, Table 4.1",0%
same,% Herbicidal activity,"Glycine max (GLXMA); GLXMA, growth stage 12-13, height 7-11 cm, B 70 g ai/ha, 21 DAT, Table 4.3",0%
same,% Herbicidal activity,"Glycine max (GLXMA); GLXMA, growth stage 12-13, height 7-11 cm, B 90 g ai/ha, 7 DAT, Table 4.1",0%
same,% Herbicidal activity,"Glycine max (GLXMA); GLXMA, growth stage 12-13, height 7-11 cm, B 90 g ai/ha, 21 DAT, Table 4.3",0%
same,% Herbicidal activity,"Senecio vulgaris (SENVU); B 70 g ai/ha, 7 DAT, Table 4.2",30%
same,% Herbicidal activity,"Senecio vulgaris (SENVU); B 70 g ai/ha, 21 DAT, Table 4.4",20% and 10%
same,% Herbicidal activity,"Senecio vulgaris (SENVU); B 90 g ai/ha, 21 DAT, Table 4.4",20%
same,% Herbicidal activity,[3]; B 120 g ai/ha,2%
same,% Herbicidal activity,[4]; B 120 g ai/ha,12%
same,% Herbicidal activity,Sorghum vulgare (SORVU); B 120 g ai/ha,5%
same,% Herbicidal activity,"[5]; B 120 g ai/ha, 14 DAT, Table 3.1",13%
same,% Herbicidal activity,"[5]; B 120 g ai/ha, 25 DAT, Table 3.2",16%
same,% Herbicidal activity,[6]; B 120 g ai/ha,16%
